The results in this text go back to patent US20230357239A1, “PYRIDO[2,3-D]PYRIMIDIN-4-AMINES AS SOS1 INHIBITORS” (Bayer Aktiengesellschaft, priority 2020, published 2023).

This assay has as its target human SOS1 (SOS1) with human K-RasG12C (Homo sapiens (Human), UniProt Q07889). Nature of the assay: hK-RasG12C interaction assay with hSOS1 (HTRF). The note with it: GST-hK-RasG12C and His-hSOS1, 60 min incubation at 20° C, mean, read-out: K-RasG12C - SOS interaction assay IC50 - [mol/l] (mean). It is filed as binding. On the procedure:
Biochemical Assay: hK-RasG12C Interaction Assay with hSOS1
This assay quantifies the equilibrium interaction of human SOS1 (SOS1) with human K-Ras^G12C (K-RasG12C). Detection of the interaction is achieved by measuring homogenous time-resolved fluorescence resonance energy transfer (HTRF) from antiGST-Europium (FRET donor) bound to GST-K-RasG12C to anti-6His-XL665 bound to His-tagged hSOS1 (FRET-acceptor).
The assay buffer containes 5 mM HEPES pH 7.4 (Applichem), 150 mM NaCl (Sigma), 10 mM EDTA (Promega), 1 mM DTT (Thermofisher), 0.05% BSA Fraction V, pH 7.0, (ICN Biomedicals), 0.0025% (v/v) Igepal (Sigma) and 100 mM KF (FLUKA).
Concentrations of protein batches used are optimized to be within the linear range of the HTRF signal. A Ras working solution is prepared in assay buffer containing typically 10 nM GST-hK-RasG12C and 2 nM antiGST-Eu(K) (Cisbio, France). A SOS1 working solution is prepared in assay buffer containing typically 20 nM His-hSOS1 and 10 nM anti-6His-XL665 (Cisbio, France). An inhibitor control solution is prepared in assay buffer containing 10 nM anti-6His-XL665 without SOS1.
Fifty nl of a 100-fold concentrated solution of the test compound in DMSO are transferred into a black microtiter test plate (384 or 1536, Greiner Bio-One, Germany).
For this, either a Hummingbird liquid handler (Digilab, MA, USA) or an Echo acoustic system (Labcyte, CA, USA) is used.
All steps of the assay are performed at 20° C. A volume of 2.5 μl of the Ras working solution is added to all wells of the test plate using a Multidrop dispenser (Thermo Labsystems). After 2 min preincubation, 2.5 μl of the SOS1 working solution are added to all wells except for those wells at the side of the test plate that are subsequently filled with 2.5 μl of the inhibitor control solution. After 60 min incubation the fluorescence is measured with a Pherastar (BMG, Germany) using the HTRF module (excitation 337 nm, emission 1: 620 nm, emission 2: 665 nm).
The ratiometric data (emission 2 divided by emission 1) are normalized using the controls (DMSO=0% inhibition, inhibition control wells with inhibitor control solution=100% inhibition). […] IC50 values are calculated by 4-Parameter fitting using a commercial software package (Genedata Screener, Switzerland).
On the technique in general: In TR-FRET formats the signal depends on donor and acceptor labels being close together.

human SOS1 (SOS1) with human K-RasG12C, sequence (Q07889 564-1049): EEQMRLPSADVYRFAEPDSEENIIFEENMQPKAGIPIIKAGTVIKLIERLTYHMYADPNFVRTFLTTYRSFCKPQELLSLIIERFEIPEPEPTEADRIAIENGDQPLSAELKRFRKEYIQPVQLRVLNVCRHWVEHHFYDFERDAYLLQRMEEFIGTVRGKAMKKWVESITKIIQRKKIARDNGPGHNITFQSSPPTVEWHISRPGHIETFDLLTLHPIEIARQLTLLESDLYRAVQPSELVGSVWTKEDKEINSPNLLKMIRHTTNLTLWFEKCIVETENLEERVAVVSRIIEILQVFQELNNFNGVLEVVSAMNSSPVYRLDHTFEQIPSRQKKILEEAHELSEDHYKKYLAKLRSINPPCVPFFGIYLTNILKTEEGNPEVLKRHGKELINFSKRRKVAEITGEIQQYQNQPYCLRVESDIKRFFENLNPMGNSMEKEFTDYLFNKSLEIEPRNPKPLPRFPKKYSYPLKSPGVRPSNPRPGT

With `Cc1nc(N[C@H](C)c2cccc(C(F)(F)F)c2C)c2cc(-c3cncnc3)cnc2n1` [Example 45, 2-methyl-N-{(1R)-1-[2-methyl-3-(trifluoromethyl)phenyl]ethyl}-6-(pyrimidin-5-yl)pyrido[2,3-d]pyrimidin-4-amine], the IC50 stood at 21.1 nM. The result for `CC(=O)N1CC=C(c2cnc3nc(C)nc(N[C@H](C)c4cccc(C(F)(F)C(C)(C)O)c4F)c3c2)CC1` [Example 46, 1-{4-[4-({(1R)-1-[3-(1,1-difluoro-2-hydroxy-2-methylpropyl)-2-fluorophenyl]ethyl}amino)-2-methylpyrido[2,3-d]pyrimidin-6-yl]-3,6-dihydropyridin-1(2H)-yl}ethan-1-one] reads 2.7 nM.

For the compound `CC(=O)N1CCC(c2cnc3nc(C)nc(N[C@H](C)c4cccc(C(F)(F)C(C)(C)O)c4F)c3c2)CC1` [Example 47, 1-{4-[4-({(1R)-1-[3-(1,1-difluoro-2-hydroxy-2-methylpropyl)-2-fluorophenyl]ethyl}amino)-2-methylpyrido[2,3-d]pyrimidin-6-yl]piperidin-1-yl}ethan-1-one], the IC50 was found to be 4 nM.

For the compound `Cc1nc(N[C@H](C)c2cccc(C(F)(F)F)c2C)c2cc(N3CC4(CN(C(N)=O)C4)C3)cnc2n1` [Example 48, 6-[2-methyl-4-({(1R)-1-[2-methyl-3-(trifluoromethyl)phenyl]ethyl}amino)pyrido[2,3-d]pyrimidin-6-yl]-2,6-diazaspiro[3.3]heptane-2-carboxamide], the IC50 worked out at 9.95 nM. As to `CC(=O)N1C2CC1CN(c1cnc3nc(C)nc(N[C@H](C)c4cccc(C(F)(F)C(C)(C)O)c4F)c3c1)C2` [Example 49, 1-{3-[4-({(1R)-1-[3-(1,1-difluoro-2-hydroxy-2-methylpropyl)-2-fluorophenyl]ethyl}amino)-2-methylpyrido[2,3-d]pyrimidin-6-yl]-3,6-diazabicyclo[3.1.1]heptan-6-yl}ethan-1-one], the IC50 was 3.31 nM. The result for `CC(=O)N1C[C@@H]2C[C@H]1CN2c1cnc2nc(C)nc(N[C@H](C)c3cccc(C(F)(F)C(C)(C)O)c3F)c2c1` [Example 50, 1-{(1 S,4S)-5-[4-({(1R)-1-[3-(1,1-difluoro-2-hydroxy-2-methylpropyl)-2-fluorophenyl]ethyl}amino)-2-methylpyrido[2,3-d]pyrimidin-6-yl]-2,5-diazabicyclo[2.2.1]heptan-2-yl}ethan-1-one] reads 2.93 nM; that for `CC(=O)N1C[C@H]2C[C@@H]1CN2c1cnc2nc(C)nc(N[C@H](C)c3cccc(C(F)(F)C(C)(C)O)c3F)c2c1` [Example 51, 1-{(1 R,4R)-5-[4-({(1R)-1-[3-(1,1-difluoro-2-hydroxy-2-methylpropyl)-2-fluorophenyl]ethyl}amino)-2-methylpyrido[2,3-d]pyrimidin-6-yl]-2,5-diazabicyclo[2.2.1]heptan-2-yl}ethan-1-one], 9.79 nM. The result for `Cc1nc(N[C@H](C)c2cccc(C(F)(F)C(C)(C)O)c2F)c2cc(N3CCN(C)CC3)cnc2n1` [Example 52, 1,1-difluoro-1-{2-fluoro-3-[(1R)-1-{[2-methyl-6-(4-methylpiperazin-1-yl)pyrido[2,3-d]pyrimidin-4-yl]amino}ethyl]phenyl}-2-methylpropan-2-ol] reads 4.48 nM; that for `CC(=O)N1CCN(c2cnc3nc(C)nc(N[C@H](C)c4cccc(C(F)(F)C(C)(C)O)c4F)c3c2)CC1` [Example 53, 1-{4-[4-({(1R)-1-[3-(1,1-difluoro-2-hydroxy-2-methylpropyl)-2-fluorophenyl]ethyl}amino)-2-methylpyrido[2,3-d]pyrimidin-6-yl]piperazin-1-yl}ethan-1-one], 3.34 nM; that for `CC(=O)N1CC2(C1)CN(c1cnc3nc(C)nc(N[C@H](C)c4cccc(C(F)(F)C(C)(C)O)c4F)c3c1)C2` [Example 54, 1-{6-[4-({(1R)-1-[3-(1,1-difluoro-2-hydroxy-2-methylpropyl)-2-fluorophenyl]ethyl}amino)-2-methylpyrido[2,3-d]pyrimidin-6-yl]-2,6-diazaspiro[3.3]heptan-2-yl}ethan-1-one], 3.52 nM. As to `CC(=O)N[C@@H]1CCN(c2cnc3nc(C)nc(N[C@H](C)c4cccc(C(F)(F)C(C)(C)O)c4F)c3c2)C1` [Example 55, N-{(3R)-1-[4-({(1R)-1-[3-(1,1-difluoro-2-hydroxy-2-methylpropyl)-2-fluorophenyl]ethyl}amino)-2-methylpyrido[2,3-d]pyrimidin-6-yl]pyrrolidin-3-yl}acetamide], the IC50 is 4.46 nM. The result for `CC(=O)N1CC=C(c2cc3c(N[C@H](C)c4cccc(C(F)F)c4F)nc(C)nc3nc2C)CC1` [Example 56, 1-{4-[4-({(1R)-1-[3-(difluoromethyl)-2-fluorophenyl]ethyl}amino)-2,7-dimethylpyrido[2,3-d]pyrimidin-6-yl]-3,6-dihydropyridin-1(2H)-yl}ethan-1-one] reads 14.1 nM; that for `CC(=O)N1CCC(c2cc3c(N[C@H](C)c4cccc(C(F)F)c4F)nc(C)nc3nc2C)CC1` [Example 57, 1-{4-[4-({(1R)-1-[3-(difluoromethyl)-2-fluorophenyl]ethyl}amino)-2,7-dimethylpyrido[2,3-d]pyrimidin-6-yl]piperidin-1-yl}ethan-1-one], 9.81 nM. As for `Cc1nc(N[C@H](C)c2cccc(C(F)(F)F)c2C)c2cc(N3CCCS3(=O)=O)c(C)nc2n1` [Example 58, 2-[2,7-dimethyl-4-({(1R)-1-[2-methyl-3-(trifluoromethyl)phenyl]ethyl}amino)pyrido[2,3-d]pyrimidin-6-yl]-1 lambda^6,2-thiazolidine-1,1-dione], the IC50 stood at 15.9 nM. In the case of `Cc1nc(N[C@H](C)c2cccc(C(F)(F)C(C)(C)O)c2F)c2cc(N3CCCS3(=O)=O)c(C)nc2n1` [Example 59, 2-[4-({(1R)-1-[3-(1,1-difluoro-2-hydroxy-2-methylpropyl)-2-fluorophenyl]ethyl}amino)-2,7-dimethylpyrido[2,3-d]pyrimidin-6-yl]-1 lambda^6,2-thiazolidine-1,1-dione] it was 7.23 nM; in that of `CC(=O)N1CC2(C1)CN(c1cc3c(N[C@H](C)c4cccc(C(F)(F)C(C)(C)O)c4F)nc(C)nc3nc1C)C2` [Example 60, 1-{6-[4-({(1R)-1-[3-(1,1-difluoro-2-hydroxy-2-methylpropyl)-2-fluorophenyl]ethyl}amino)-2,7-dimethylpyrido[2,3-d]pyrimidin-6-yl]-2,6-diazaspiro[3.3]heptan-2-yl}ethan-1-one], 3410 nM; in that of `CC(=O)N1CCN(c2cnc3nc(C)nc(N[C@H](C)c4cccc(C(F)(F)F)c4C)c3c2)C(=O)C1` [Example 61, 4-acetyl-1-[2-methyl-4-({(1R)-1-[2-methyl-3-(trifluoromethyl)phenyl]ethyl}amino)pyrido[2,3-d]pyrimidin-6-yl]piperazin-2-one], 2.53 nM. The result for `CC(=O)N1CCC(c2cc3c(N[C@H](C)c4cccc(C(F)(F)C(C)(C)O)c4F)nc(C)nc3nc2C)=C(C)C1` [Example 62, 1-{4-[4-({(1R)-1-[3-(1,1-difluoro-2-hydroxy-2-methylpropyl)-2-fluorophenyl]ethyl}amino)-2,7-dimethylpyrido[2,3-d]pyrimidin-6-yl]-5-methyl-3,6-dihydropyridin-1(2H)-yl}ethan-1-one] reads 14.5 nM.

For `CC(=O)N1CC2(C1)CN(c1cc3c(N[C@H](C)c4cccc(C(F)(F)F)c4C)nc(C)nc3nc1C)C2` [Example 63, 1-{6-[2,7-dimethyl-4-({(1R)-1-[2-methyl-3-(trifluoromethyl)phenyl]ethyl}amino)pyrido[2,3-d]pyrimidin-6-yl]-2,6-diazaspiro[3.3]heptan-2-yl}ethan-1-one], the IC50 was 8.66 nM.

For the compound `CC(=O)N1C[C@@H]2C[C@H]1CN2c1cc2c(N[C@H](C)c3cccc(C(F)(F)C(C)(C)O)c3F)nc(C)nc2nc1C` [Example 64, 1-{(1 S,4S)-5-[4-({(1R)-1-[3-(1,1-difluoro-2-hydroxy-2-methylpropyl)-2-fluorophenyl]ethyl}amino)-2,7-dimethylpyrido[2,3-d]pyrimidin-6-yl]-2,5-diazabicyclo[2.2.1]heptan-2-yl}ethan-1-one], the IC50 amounted to 4.35 nM. The result for `CC(=O)N1CC=C(c2cc3c(N[C@H](C)c4cccc(C(F)(F)C(C)(C)O)c4F)nc(C)nc3nc2C)CC1` [Example 65, 1-{4-[4-({(1R)-1-[3-(1,1-difluoro-2-hydroxy-2-methylpropyl)-2-fluorophenyl]ethyl}amino)-2,7-dimethylpyrido[2,3-d]pyrimidin-6-yl]-3,6-dihydropyridin-1(2H)-yl}ethan-1-one] reads 5.72 nM.
